From patent US11959083B2, “Immunosuppression-reverting oligonucleotides inhibiting the expression of CD39” (Secarna Pharmaceuticals GmbH & Co. KG, priority 2016, dated 2024)
l = locked nucleic acid (LNA); d = 2'-deoxy (DNA)

Key:
mCD39 mRNA [1] = assay: mCD39 mRNA knockdown efficacy screen in A20 cells (single dose, gymnotic delivery, QuantiGene Singleplex); assay type: cell-based, mouse; settings: 10 μM, three days, normalized to HPRT1
Protocol: FIG. 14-1 and 14-2 show mCD39 mRNA knockdown efficacy of mCD39 antisense oligonucleotides in the murine cancer cell line A20 (mouse B cell lymphoma). A20 cells were treated with a single dose of 10 μM of the respective antisense oligonucleotide. As negative control, cells were treated with neg1, an antisense oligonucleotide having the sequence CGTTTAGGCTATGTACTT (SEQ ID NO:99). Residual mCD39 mRNA expression relative to untreated cells is depicted. Expression values were normalized to expression of the housekeeping gene HPRT1.
In order to analyze the efficacy of mCD39 antisense oligonucleotides with regard to the knockdown of mCD39 mRNA expression in a cancer cell line, A20 (mouse B cell lymphoma, ATCC) cells were treated with a single dose (concentration: 10 μM without addition of any transfection reagent; this process is called gymnotic delivery) of the respective antisense oligonucleotide as indicated in FIG. 14. As control, cells were treated with neg1, an antisense oligonucleotide having the sequence CGTTTAGGCTATGTACTT (SEQ ID NO:99). mCD39 and HPRT1 mRNA expression was analyzed after three days using the QuantiGene Singleplex assay (Affymetrix) and mCD39 expression values were normalized to HPRT1 expression values.

mCD39 mRNA [2] = assay: In vivo mCD39 mRNA knockdown in spleens of C57BL/6 mice; set-up: species or system mouse; settings: day 26, compared to neg 1 treated mice
Protocol: FIGS. 15A and 15B depict CD39 mRNA expression levels in spleens from C57BL/6 mice treated by subcutaneous injections of either A04011MR or the negative control oligonucleotide neg1 at doses of 25 mg/kg or 10 mg/kg on days 1, 2, 3, 4, 5, 9, 12, 16, and 19 (5 mice/group). Expression values were normalized to expression values of the housekeeping gene HPRT1.
The potent mCD39 ASO A04011MR was selected and its in vivo knockdown capacity in C57BL/6 mice was analyzed. C57BL/6 mice were treated by subcutaneous injections of either A04011MR or the negative control oligonucleotide neg1 at doses of 25 mg/kg or 10 mg/kg on days 1, 2, 3, 4, 5, 9, 12, 16, and 19 (5 mice/group). Seven days after the last ASO treatment (day 26), mice were sacrificed and spleens were sampled for CD39 mRNA analysis. The results depicted in FIG. 15 show CD39 mRNA expression levels in spleens of A04011MR or neg1-treated mice.

mCD39 protein = assay: In vivo mCD39 protein knockdown in tumor-infiltrating immune cells, syngeneic MC38 mouse tumor model; settings: MC38 tumor-bearing C57BL/6 mice, 20, 10, 5 mg/kg subcutaneous, day 16, compared to the controls
Protocol: FIGS. 16A and 16B show CD39 protein expression on tumor infiltrating regulatory T cells (Tregs) (FIG. 16A) and tumor associated macrophages (TAMs) (FIG. 16B) from oligonucleotide-treated mice in relation to tumors of untreated mice.
The potent mCD39 antisense oligonucleotide A04011MR was selected and its in vivo knockdown capacity in a subcutaneous syngeneic murine tumor model was analyzed. Therefore, 5×10^5 MC38 wt tumor cells were injected subcutaneously into C57BL/6 mice. Once tumors reached sizes between 50-70 mm^3, mice were treated systemically by subcutaneous injections with different doses of A04011MR (20 mg/kg; 10 mg/kg; 5 mg/kg) or with the negative control oligonucleotide neg1 (20 mg/kg) on days 1, 2, 3, 4, 5, 9, and 12 (4 mice/per group). As additional control, MC-38 tumor-bearing mice were left untreated. Four days after the last treatment with antisense oligonucleotide (day 16), tumors were isolated in order to analyze CD39 protein expression in subtypes of tumor-infiltrating immune cells using flow cytometry. FIGS. 16A and 16B depict CD39 protein expression on tumor-infiltrating regulatory T cells (Tregs) (FIG. 16A) and tumor associated macrophages (TAMs) (FIG. 16B) from oligonucleotide-treated mice in relation to tumors of untreated mice.

hCD39 = target: T1, hCD39 (Homo sapiens, UniProt P49961); assay: ATP degradation in JIYOYE cells after hCD39 knockdown (ATP Bioluminescence Assay); assay type: cell-based; settings: 5 μM oligonucleotide 6 days or 20 μM ARL67156 1 h; 2 μM ATP added
T1 construct: endogenous in cells; host or cells: JIYOYE cells
T1 sequence (P49961 1-510): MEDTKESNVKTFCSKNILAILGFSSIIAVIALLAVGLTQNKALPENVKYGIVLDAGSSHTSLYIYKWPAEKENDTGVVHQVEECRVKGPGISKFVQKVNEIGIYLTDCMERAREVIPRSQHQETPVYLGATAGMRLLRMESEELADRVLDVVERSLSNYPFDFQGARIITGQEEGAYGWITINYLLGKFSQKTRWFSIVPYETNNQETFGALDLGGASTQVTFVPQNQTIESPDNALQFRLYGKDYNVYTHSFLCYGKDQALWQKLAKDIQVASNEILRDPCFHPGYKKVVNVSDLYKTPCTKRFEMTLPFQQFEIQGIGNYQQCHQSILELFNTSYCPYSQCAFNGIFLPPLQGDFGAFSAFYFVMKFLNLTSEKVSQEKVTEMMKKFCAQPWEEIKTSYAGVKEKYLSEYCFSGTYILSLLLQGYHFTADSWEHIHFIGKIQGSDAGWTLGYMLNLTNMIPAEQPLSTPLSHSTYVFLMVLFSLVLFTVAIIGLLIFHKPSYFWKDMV
Protocol: FIG. 10A-10C depict effects of hCD39 knockdown on viability and ATP concentration in JIYOYE cells. JIYOYE cells were treated with the indicated antisense oligonucleotide A04040H (SEQ ID No.3) or neg1 for 6 days in total at 5 μM. Medium was replaced with fresh oligonucleotide-containing medium after 3 days and hCD39 protein knockdown efficacy was analyzed on day 6 by flow cytometry. Residual hCD39 expression and viability of oligonucleotide-treated cells is depicted compared to untreated cells (FIG. 10A-10B). After 6 days, 20 μM of the CD39 small molecular inhibitor ARL67156 trisodium salt was added to no ASO treated cells and incubated for 1 h at 37° C. Then, 2 μM of ATP was added to cells or cell culture medium without cells from each condition and ATP concentration of cell supernatants or cell culture medium was determined after 30 min using the ATP Bioluminescence Assay Kit (Roche) (FIG. 10C).
Adenosine is one major immunosuppressive molecule generated during ATP degradation by hCD39. ATP can be detected by an ATP Bioluminescence Assay (ATP Bioluminescence Assay Kit CLS II; Roche). JIYOYE cells were treated with 5 μM antisense oligonucleotide A04040H (SEQ ID No. 3) or the negative control oligonucleotide neg1 for 6 days (3+3). After 3 days, RPMI-1640 medium was replaced with fresh RPMI-1640 medium containing 5 μM of oligonucleotide. Protein knockdown efficacy (FIG. 10A) and viability (FIG. 10B) were analyzed after 6 days by flow cytometry. […] The same day, cells that were not treated with any antisense oligonucleotide were incubated for 1 hr at 37° C. with 20 μM of the CD39 small molecular inhibitor ARL67156 trisodium salt (TOCRIS). Then, 2 μM of ATP was added to cells or cell culture medium without cells derived from each condition and ATP concentration was measured in the cell supernatants or in cell culture medium after 30 min. […] Table 14 presents the effect of hCD39 knockdown on relative ATP levels in the cell culture supernatants of JIYOYE cells: […]

human CD8+ T cells = assay: Proliferation and absolute cell numbers of human CD8+ T cells in presence or absence of extracellular ATP; assay type: cell-based; settings: 5 μM oligonucleotide 5 days or 20 μM ARL67156 24 h
Protocol: FIG. 12A-12C depict human CD8^+ T cells which were labelled with cell proliferation dye, activated with anti-CD3 and treated with 5 μM of the antisense oligonucleotide A04040H (black column) or the control oligonucleotide S6 (white column) for a total treatment time of 5 days. In the vehicle control (striped column), cells were activated with anti-CD3 only. Subsequently, 400 μM of ATP or vehicle were added to cells on day 3 and day 4 after start of oligonucleotide treatment. Furthermore, as additional control, the small molecular CD39-inhibitor ARL67156 trisodium salt was added at 20 μM to cells on day 4, for an incubation time of 24 h (checked column). On day 5 after start of oligonucleotide treatment, (FIG. 12A) CD39 protein expression, (FIG. 12B) proliferation and (FIG. 12C) absolute cell numbers of CD8^+ T cells were analyzed using Flow Cytometry. Depicted is the mean of triplicate wells+/−SD.
In cancer, ATP is released from tumor cells for example after cell death induced by chemotherapy or radiation therapy. Since the CD39-CD73 axis plays an important role for T cell function the effects of A04040H on T cell proliferation in the presence or absence of extracellular ATP were investigated. Human CD8^+ T cells were labelled with cell proliferation dye, activated with anti-CD3 and treated with 5 μM of the antisense oligonucleotide A04040H or the control oligonucleotide S6 for a total treatment time of 5 days. In the vehicle control, cells were activated with anti-CD3 only. Subsequently, 400 μM of ATP or vehicle were added to cells on day 3 and day 4 after start of oligonucleotide treatment. Furthermore, as additional control, the small molecular CD39-inhibitor ARL67156 trisodium salt was added at 20 μM to cells on day 4 for an incubation time of 24 h. On day 5 after start of oligonucleotide treatment, CD39 protein expression, proliferation, and absolute cell numbers of CD8^+ T cells were analyzed using Flow Cytometry.

hCD39 mRNA [3] = assay: hCD39 mRNA knockdown efficacy screen in A-172 cells (single dose, gymnotic delivery, QuantiGene Singleplex); assay type: cell-based, human; settings: 10 μM, 3 days, third screening round
Procedure, shortened: (§1)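 Antisense oligonucleotides given once at 10 μM without transfection reagent (gymnotic) to HDLM-2 or A-172 cells for 3 days. hCD39 mRNA measured by QuantiGene Singleplex, normalized to HPRT1 and expressed relative to untreated cells; triplicate means.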

hCD39 mRNA [4] = assay: hCD39 mRNA knockdown efficacy screen in HDLM-2 cells (single dose, gymnotic delivery, QuantiGene Singleplex); assay type: cell-based, human; settings: 10 μM, 3 days, third screening round
Procedure, shortened: as §1

hCD39 protein = hCD39 protein expression in primary human CD8+ and CD4+ T cells after oligonucleotide removal (flow cytometry); assay type: cell-based; settings: 10 μM for six days with anti-CD3, compared to untreated control cells
Protocol: Thereafter, oligonucleotides and anti-CD3 were removed and hCD39 protein expression was analyzed by flow cytometry three, six, and eleven days after oligonucleotide removal. CD39 protein expression is depicted as mean fluorescence intensity (MFI) and was calculated by subtracting the MFI of the unspecific isotype control from the MFI of CD39. Depicted is the mean of duplicate wells+/−SD.
A04040H had shown very potent activity in suppressing hCD39 expression on mRNA- and protein-level in human cancer cell lines. In the next step, its activity in primary human T cells was investigated. Furthermore, the persistence of the effects after antisense oligonucleotide removal was examined. Therefore, CD8^+ and CD4^+ T cells were isolated from peripheral blood and activated for a total treatment time of six days with anti-CD3 in the presence of 10 μM of the hCD39 specific antisense oligonucleotide A04040H (black column) or the control oligonucleotide S6 (white column), which is not complementary to any human mRNA. […] Thereafter, oligonucleotides were removed and hCD39 protein expression was analyzed three, six, and eleven days after oligonucleotide removal by flow cytometry (FIG. 9).

[5] = absence of extracellular ATP, vs vehicle
[6] = supplementation with 400 μM of ATP

Compound	Relative mCD39 mRNA expression (compared to non-treated cells) (mCD39 mRNA [1])	absolute cell numbers of CD8+ T cells (human CD8+ T cells; [5])	proliferation of CD8+ T cells (human CD8+ T cells; [5])	absolute numbers of CD8+ T cells (human CD8+ T cells; [6])	proliferation of CD8+ T cells (human CD8+ T cells; [6])	further results
+A*+G*+T*A*A*T*C*C*A*C*C*C*A*+T*+A*+G (antisense AGTAATCCACCCATAG; sugars from the 5' end l3 d10 l3, all phosphorothioate, methylation of C not given here) [A04011MR]	0.01					mCD39 mRNA levels in spleens (mCD39 mRNA [2]; 10 mg/kg subcutaneous): significantly reduced; mCD39 mRNA levels in spleens (mCD39 mRNA [2]; 25 mg/kg subcutaneous): significantly reduced; mCD39 protein expression on tumor associated macrophages (TAMs) (mCD39 protein): dose-dependently suppressed; mCD39 protein expression on tumor-infiltrating regulatory T cells (Tregs) (mCD39 protein): dose-dependently suppressed
CCN(CC)c1ncnc2c1ncn2[C@@H]1O[C@H](COP(=O)(O)OP(=O)(O)C(Br)(Br)P(=O)(O)O)[C@@H](O)[C@H]1O [ARL67156]		no differences	no differences	significantly diminished	reduced proliferation	Relative ATP levels in supernatants of JIYOYE cells 30 minutes after addition of ATP (vs. Medium control) (hCD39): 0.38
+T*+C*+T*A*T*C*G*T*G*A*T*G*T*T*+T*+C*+T (antisense TCTATCGTGATGTTTCT; sugars from the 5' end l3 d11 l3, all phosphorothioate, methylation of C not given here) [S6]		no differences	no differences	significantly diminished	reduced proliferation	Residual hCD39 mRNA expression relative to untreated cells (set as 1) (hCD39 mRNA [3]): 0.95; Residual hCD39 mRNA expression relative to untreated cells (set as 1) (hCD39 mRNA [4]): 0.95; hCD39 protein expression (MFI) after oligonucleotide removal (hCD39 protein): no inhibitory effect
+G*+C*+T*A*T*A*C*T*G*C*C*T*C*T*+T*+T*+C (antisense GCTATACTGCCTCTTTC; sugars from the 5' end l3 d11 l3, all phosphorothioate, methylation of C not given here) [A04032MR]	0.02					
